# Experimental data published in PubChem BioAssay (NCI).
#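 Exposure lasted 48 hours, with cells grown in 96-well plates and compounds tested at five concentrations. Here, GI50 denotes the concentration required for 50% inhibition of growth. Definition used: TGI = concentration required for complete inhibition of growth.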
# Tests used:
# Experiment in all cases: inhibition of tumour cell growth, NCI panel, 48 h
# OVCAR-8 ovarian = tested on: OVCAR-8 ovarian
# SF-295 CNS = tested on: SF-295 CNS
# SNB-75 CNS = tested on: SNB-75 CNS
# IGROV1 ovarian = tested on: IGROV1 ovarian
# M14 melanoma = tested on: M14 melanoma
# SNB-19 CNS = tested on: SNB-19 CNS
# MDA-MB-435 = tested on: MDA-MB-435
Structure (SMILES),GI50 (OVCAR-8 ovarian) [µM],TGI (OVCAR-8 ovarian) [µM],GI50 (SF-295 CNS) [µM],TGI (SF-295 CNS) [µM],GI50 (SNB-75 CNS) [µM],TGI (SNB-75 CNS) [µM],GI50 (IGROV1 ovarian) [µM],TGI (IGROV1 ovarian) [µM],GI50 (M14 melanoma) [µM],TGI (M14 melanoma) [µM],GI50 (SNB-19 CNS) [µM],TGI (SNB-19 CNS) [µM],GI50 (MDA-MB-435) [µM],TGI (MDA-MB-435) [µM]
Cc1ccc(NC(=O)/C=C/c2ccccc2)c(C(N)=O)c1,7.38,> 100,2.79,> 56.7,2.62,15.1,4.89,> 56.1,2.12,> 100,5.81,> 100,0.526,2.44
CN(C)CCCN1c2ccccc2CCc2ccc(Cl)cc21,8.23,23.6,3.51,14.8,1.7,8.77,7.09,22,1.83,3.35,6.42,21.5,2.35,6.91
C/C(=N\Nc1ccc2ccccc2n1)c1ccccn1,< 0.0492,12.8,,0.636,0.123,17.6,,0.979,0.0504,1.33,0.198,14.3,0.223,8.09
CC(C)CC(CC1=CCC2CC1C2(C)C)C1=C(O)C(C)(C)C(=O)C(C)(C)C1=O (centres undefined),0.379,> 100,0.285,0.942,0.24,9.67,0.5,> 100,0.404,5.86,0.375,> 100,0.374,31.8
O=C(NN1C(=O)CSC12CCCCC2)c1[nH]c2ccc(F)cc2c1-c1ccccc1,18,31.9,22.2,40,18.5,36.2,14.4,32.9,38.2,> 100,19.8,44.2,21.8,52.9
CCCCCCCCCCCCCCCCCC(=O)OCC(COC1OC(COP(=O)(O)O)C(O)C(O)C1O)OC(=O)CCCCCCCCCCCCCCCCC (centres undefined),,17.8,,10.6,,11.5,,10.5,,17.3,,14.8,,17.1
Cn1c2c(cc(S(=O)(=O)c3ccccc3)c1=O)CCc1c-2cnn1-c1ccc(Cl)cc1,2.73,6.22,2.09,5.04,1.93,4.02,3.22,> 100,,,2.01,4.33,,
O=c1[nH]c2ccccc2nc1-c1c[nH]c2ccccc12,> 100,> 100,68.2,> 100,2.93,> 100,1.26,> 100,> 100,> 100,> 100,> 100,> 100,> 100
COc1cccc(NC(=O)c2sc3nc4c(cc3c2N)CN(Cc2ccccc2)CC4)c1,4.45,85.2,3.05,19.4,1.73,4.71,18.5,> 100,12.7,86.8,4.75,> 100,0.296,11
CC(C)(C)c1ccc(OCCCCCCN2CCNCC2)cc1,14.6,33.5,8.82,22.3,3.12,16,6.34,22.6,3.22,13.5,8.06,24.4,3.17,11.9
CCN(C(=O)N1CCN(c2cc3c(cc2F)c(=O)c(C(=O)O)cn3C2CC2)CC1)c1nc(-c2ccc(C)cc2)cs1,1.41,> 100,0.306,3.76,1.09,5.08,0.354,> 100,0.928,> 100,1.03,> 45.4,0.56,> 100
N/C(=N\N=C\c1ccc(-c2ccccc2)cc1)N[N+](=O)[O-],5.61,> 100,2.61,> 100,1.06,6.62,28,> 100,1.65,> 100,,> 100,0.226,0.599
Cc1cc(N/N=C/c2nc(-c3ccc(Br)cc3)oc2C)c2cc(Cl)ccc2n1,> 100,> 100,> 100,> 100,> 100,> 100,> 100,> 100,> 100,> 100,> 100,> 100,> 100,> 100
C=CC(=O)N(C)[C@H]1C[C@H]2OC(C)(C1OC)n1c3ccccc3c3c4c(c5c6ccccc6n2c5c31)C(=O)NC4 (some centres undefined),0.217,,0.0815,0.827,0.0137,0.0766,,,0.115,1.74,0.17,1.71,0.364,3.9
CN(C)c1ccc(/C=C\c2cccc[n+]2C)cc1,4.13,> 100,4.33,> 100,6.26,49.5,8.66,> 100,10.7,> 100,4.83,> 100,4.16,> 100
O=[N+]([O-])c1cccc(-c2nc3sccn3c2-c2ccnc(NCCCNS(=O)(=O)c3cccc(F)c3)n2)c1,1.89,17.7,2.52,7.79,1.52,4.24,2.71,11.6,2.82,12,4.34,61.8,2.98,11.6
CC(CN1CCN(CCOCCO)CC1)CN1c2ccccc2Sc2ccc(Cl)cc21 (centres undefined),4.99,18.9,,,,,3.36,13.3,1.85,3.46,8.14,21.8,2.06,4.96
O=C1c2ccccc2-c2c1c1ccc([N+](=O)[O-])cc1c(=O)n2CCCBr,> 100,> 100,,,> 100,> 100,> 100,> 100,3.26,> 100,> 100,> 100,> 100,> 100
